Earlier results on one compound are cited in patent publication US4966770A (priority 1989, dated 1990).

For the compound `C[C@]12C=CC(=O)C=C1CC[C@@H]1[C@@H]2C(=O)C[C@@]2(C)[C@H]1CC[C@]2(O)C(=O)CO` [prednisone], the solubility in alcohol entry is recorded as “slightly soluble in alcohol” and the solubility in water entry is listed as “very slightly soluble in water”.
